Source: patent publication US12514851B2, “Use of 2,3,5-substituted thiophene compound for preventing, ameliorating, or treating ovarian cancer” (PHAROS IBIO CO., LTD, priority 2020, dated 2026)

Experiments:
Assay type in all cases: cell-based
[1] = tested on: CAOV3 ovarian cancer cell line; experiment: Inhibitory activity against ovarian cancer cell lines, agents alone (Celltiter glo cell viability)
Protocol: (§5) In 100-mm culture dishes (SPL) at 37° C. under 5% CO2, the CAOV3 ovarian cancer cell line was cultured using DMEM (Dulbeco's Modified Eagle Medium), and the OVCAR3, SK-OV-3 and SW626 ovarian cancer cell lines were cultured using RPMI1640 medium. Thereafter, each cell line was diluted to 3,000 cells/80 μl using PBS (phosphate-buffered saline) (Biosesang).
(§6) After incubation, the cells were counted using a Celltiter glo assay kit (Promega), and cell viability was measured by expressing the cell count as a percentage relative to that of a control group not treated with PHI-101 or the anticancer agent.

[2] = tested on: SK-OV-3 ovarian cancer cell line; experiment: as above; settings: SK-OV3
Protocol: as §5, §6

[3] = tested on: OVCAR3 ovarian cancer cell line; experiment: as above
Protocol: as §5, §6

[4] = tested on: SW626 ovarian cancer cell line; experiment: as above
Protocol: as §5, §6

[5] = tested on: OVCAR3 ovarian cancer cell line; experiment: Synergistic effect of PHI-101 and olaparib (Celltiter glo viability, Combination Index by CalcuSyn); settings: Homo sapiens, OVCAR-3, Table 7, combination index experiment, 72 hours
Protocol: (§1) In order to establish the concentrations of PHI-101 and olaparib which are in an integer ratio in the combination index experiment, based on the IC50 value of olaparib relative to the relatively low IC50 value (1×) of PHI-101, the integer ratio between PHI-101 and olaparib was obtained as shown in Table 4 below.
(§2) Each prepared 10× solution was serially diluted at 1:2 in each of six E-tubes, each containing 150 μl of medium. Then, a PHI-101 96-well plate (FIG. 4) and an olaparib 96-well plate (FIG. 5) were prepared separately, and 30 μl of the serially diluted PHI-101 or olaparib was dispensed into each well of the corresponding plate. 30 μl of medium was dispensed into each well not containing the substance.
(§3) Then, each well was incubated at 37° C. under 5% CO2 for 72 hours, and each experiment was performed in triplicate.
(§4) Next, using the CalcuSyn software and based on the Combination Index (CI) shown in Table 8, the CI for each ovarian cancer cell line depending on the treatment concentrations of PHI-101 and olaparib was calculated, and whether there was synergism between the substances was evaluated.

[6] = tested on: SK-OV3 ovarian cancer cell line; experiment: as above; settings: Homo sapiens, SK-OV-3, Table 7, combination index experiment, 72 hours
Protocol: as §1, §2, §3, §4

[7] = tested on: CAOV3 ovarian cancer cell line; experiment: as above; settings: Homo sapiens, Caov-3, Table 7, combination index experiment, 72 hours
Protocol: as §1, §2, §3, §4

[8] = tested on: TP53-mutant ovarian cancer cell lines; experiment: Selective inhibitory activity against TP53-mutant ovarian cancer cell lines; settings: TP53-mutant versus non-mutant ovarian cancer cell lines (Table 2)
Text: In order to evaluate the selective inhibitory activity of PHI-101, the characteristics of each cell line and the inhibitory activity of PHI-101 against ovarian cancer cell lines were investigated as shown in Table 2 below.

[9] = Homo sapiens, OVCAR-3, agent alone, 72 hours
[10] = Homo sapiens, Caov-3, agent alone, 72 hours
[11] = Homo sapiens, SK-OV-3, agent alone, 72 hours
[12] = Homo sapiens, agent alone, 72 hours

| Structure (SMILES) | IC50 [3, 9] [µM] | IC50 [1, 10] [µM] | IC50 [2, 11] [µM] | IC50 [4, 12] [µM] | IC50 [5] [µM] | IC50 [6] [µM] | IC50 [7] [µM] | also measured |
| --- | --- | --- | --- | --- | --- | --- | --- | --- |
| N.N.[Cl][Pt][Cl] [Cisplatin, cisplatin] |  |  |  |  |  |  |  | IC50 ([1]; agent alone, 72 hours): 3.5 µM; IC50 ([2]; agent alone, 72 hours): 12.3 µM; IC50 ([3]; agent alone, 72 hours): 4.4 µM; IC50 ([4]; agent alone, 72 hours): 8 µM |
| COc1cccc(OCCCN)c1-c1cc(Nc2cnc(C#N)cn2)n[nH]1 [Prexasertib, prexasertib] | 6.3 |  |  |  |  |  |  |  |
| CC[C@@]1(O)C(=O)OCc2c1cc1n(c2=O)Cc2cc3c(CN(C)C)c(O)ccc3nc2-1 [Topotecan, topotecan] | 8.3 | 3.9 | 3.7 | 14.4 |  |  |  |  |

Further lines, with some results ahead:

| IC50 [3, 9] [µM] | IC50 [1, 10] [µM] | IC50 [2, 11] [µM] | IC50 [4, 12] [µM] | IC50 [5] [µM] | IC50 [6] [µM] | IC50 [7] [µM] | Structure (SMILES) | also measured |
| --- | --- | --- | --- | --- | --- | --- | --- | --- |
| 5.7 | 3.6 | 114 | 29.8 |  |  |  | CC(=O)O[C@H]1C(=O)[C@@]2(C)[C@H]([C@H](OC(=O)c3ccccc3)[C@]3(O)C[C@H](OC(=O)[C@H](O)[C@@H](NC(=O)c4ccccc4)c4ccccc4)C(C)=C1C3(C)C)[C@]1(OC(C)=O)CO[C@@H]1C[C@@H]2O [Paclitaxel, paclitaxel] |  |
| 96.5 | 59.7 | 114 | 147 | 96.5 | 114 | 59.7 | O=C(c1cc(Cc2n[nH]c(=O)c3ccccc23)ccc1F)N1CCN(C(=O)C2CC2)CC1 [Olaparib, olaparib] |  |
| 2.7 | 0.5 | 5.6 | 3.6 | 3.5 | 4.39 | 0.873 | NC(=O)Nc1cc(C#Cc2cccc(F)c2)sc1C(=O)N[C@H]1CCCNC1 [PHI-101, (S)-5-((3-fluorophenyl)ethynyl)-N-(piperidin-3-yl)-3-ureido thiophene-2-carboxamide] | IC50 ([1]; Homo sapiens, Caov-3, Table 4, values used to establish treatment starting concentrations): 0.523 µM; IC50 ([2]; Homo sapiens, SK-OV-3, Table 4, values used to establish treatment starting concentrations): 5.6 µM; IC50 ([3]; Homo sapiens, OVCAR-3, Table 4, values used to establish treatment starting concentrations): 2.76 µM; IC50 ([4]; Homo sapiens, Table 4, values used to establish treatment starting concentrations): 3.64 µM; selective inhibitory activity [8]: better inhibitory activity against the TP53-mutant ovarian cancer cell lines |
